# Measured values published in patent US5922545A, “In vitro peptide and antibody display libraries” (Affymax Technologies N.V., priority 1997, dated 1999).
# B1: IREBP: iron response element binding protein (98.4 kDal), RNA-binding protein (protein, UniProt P21399 1-889, looked up)
# Cytoplasmic aconitate …: MSNPFAHLAEPLDPVQPGKKFFNLNKLEDSRYGRLPFSIRVLLEAAIRNCDEFLVKKQDIENILHWNVTQHKNIEVPFKPARVILQDFTGVPAVVDFAAMRDAVKKLGGDPEKINPVCPADLVIDHSIQVDFNRRADSLQKNQDLEFERNRERFEFLKWGSQAFHNMRIIPPGSGIIHQVNLEYLARVVFDQDGYYYPDSLVGTDSHTTMIDGLGILGWGVGGIEAEAVMLGQPISMVLPQVIGYRLMGKPHPLVTSTDIVLTITKHLRQVGVVGKFVEFFGPGVAQLSIADRATIANMCPEYGATAAFFPVDEVSITYLVQTGRDEEKLKYIKKYLQAVGMFRDFNDPSQDPDFTQVVELDLKTVVPCCSGPKRPQDKVAVSDMKKDFESCLGAKQGFKGFQVAPEHHNDHKTFIYDNTEFTLAHGSVVIAAITSCTNTSNPSVMLGAGLLAKKAVDAGLNVMPYIKTSLSPGSGVVTYYLQESGVMPYLSQLGFDVVGYGCMTCIGNSGPLPEPVVEAITQGDLVAVGVLSGNRNFEGRVHPNTRANYLASPPLVIAYAIAGTIRIDFEKEPLGVNAKGQQVFLKDIWPTRDEIQAVERQYVIPGMFKEVYQKIETVNESWNALATPSDKLFFWNSKSTYIKSPPFFENLTLDLQPPKSIVDAYVLLNLGDSVTTDHISPAGNIARNSPAARYLTNRGLTPREFNSYGSRRGNDAVMARGTFANIRLLNRFLNKQAPQTIHLPSGEILDVFDAAERYQQAGLPLIVLAGKEYGAGSSRDWAAKGPFLLGIKAVLAESYERIHRSNLVGMGVIPLEYLPGENADALGLTGQERYTIIIPENLKPQMKVQVKLDTGKTFQAVMRFDTDVELTYFLNGGILNYMIRKMAK
# Assays:
# [1] = system: peptidyl transferase activity of 50S ribosomal subunits; conditions: cited from earlier work
# mAb D32.39 [2] = assay: competition binding assay of synthesized peptides for mAb D32.39; conditions: 50 pM tracer peptide containing the D32.39 epitope sequence, IC50 should approximate the Kd, read-out: binding affinity for mAb D32.39 (IC50)
# Description: FIG. 6. (SEQ. ID NO: 50-74) Amino acid alignment of selected peptide sequences with dynorphin B. The six-residue D32.39 epitope sequence of dynorphin B and the peptide regions similar to it are shown in the box. A total of 6, 13, 19, and 9 independent clones were sequenced from rounds 2, 3, 4 and 5, respectively. The frequency indicates the number of times each sequence occurred among the clones isolated from each round, and the asterisks indicate identical sequences found in different rounds. Binding affinities for D32.39 were determined by chemically synthesizing the indicated peptide sequences and measuring the IC50 as described in the Experimental Examples.
# Peptides were synthesized with an Applied Biosystems model 431A peptide synthesizer using Fmoc-protected amino acids. The peptides were purified to greater than 90% purity by HPLC and confirmed by mass spectroscopy. The competition binding assay was performed and included a low concentration (50 pM) of the tracer peptide containing the D32.39 epitope sequence.
# Peptides corresponding to some of the enriched sequences were chemically synthesized, purified and their identity confirmed by mass spectrometry. A competition binding assay was used to estimate their affinity for the mAb D32.39 and under the conditions of the assays the IC50 value should approximate the Kd. […]
# mAb D32.39 [3] = assay: competition binding of radiolabelled polysomes to immobilized mAb D32.39; conditions: wells preincubated with 10 μH dynorphin B peptide for 1 hr at 4° C.
# Experimental: FIG. 2. Specific binding of polysomes to mAb D32.39. Radiolabelled polysomes were isolated from reactions programmed with 1.5 μg of HindIII-linearized plasmid pLM138 or pLM142 and bound to microtiter wells containing the immobilized mAb. The recovered mIRNA was quantitated by TCA precipitation. (Panel A) Binding of polysomes containing the D32.39 epitope (closed boxes) or control (open boxes) sequences. (Panel B) Competition binding assay. Microtiter wells were preincubated with polysome buffer in the absence or presence of 10 μH dynorphin B peptide for 1 hr at 4° C. prior to adding 131,000 cpm of polysomes containing the D32.39 epitope (RQFKVVT) (SEQ ID NO:18) or control (VFKRTVQ) (SEQ ID NO:15) sequences.
# Dynal beads were prepared according to the manufacturer. Microtiter wells were prepared for polysome binding by incubating each well with mAb D32.39 (5 μg per well) in PBS (10 mM sodium phosphate pH 7.4/120 mM NaCl/2.7 mM KCl) for 1 hr at 37° C., washing with PBS, blocking with PBS/1% nonfat milk for 1 hr at 37° C. and washing again with polysome buffer. Polysomes, as indicated, were incubated with the antibody for 2 hr at 4° C. […]
# Specific Binding of Polysomes to mAb D32.39. The fraction of polysomes capable of binding specifically to mAb D32.39 via the nascent peptide was determined. […]
# [4] = target: iron response element (IRE); conditions: binds as a monomer; read-out: dissociation constant; cited from earlier work
molecule,measurement,setting,value
MSTSKNAD [cmlA 8-mer peptide],inhibitory activity relative to chloramphenicol,[1]; as inhibitory as chloramphenicol,about 50%
same,inhibitory activity relative to the cat 5-mer,[1]; more inhibitory than the cat 5-mer,about 5 fold
dynorphin B,IC50,mAb D32.39 [2],0.29 nM
same,blocking of binding of D32.39 epitope polysomes to mAb D32.39,mAb D32.39 [3],binding was blocked
B1,Kd,[4],0.02 to 0.05 nM
